Results as given in PMC8074792, “An ω-3, but Not an ω-6 Polyunsaturated Fatty Acid Decreases Membrane Dipole Potential and Stimulates Endo-Lysosomal Escape of Penetratin” (Frontiers in Cell and Developmental Biology, 2021).

What was measured:
JY cells [1] = conditions: 50 μM fatty acid 48 h, LysoTracker Deep Red and 10 µM PY3174 2 h at 37°C, extent similar to cell membrane
Protocol: (§1) Measurement of hydration of lysosomal membranes with fluorescence microscopy […]
(§2) The PY3174 fluorophore capable of providing information about the hydration of the cell membrane […]
(§3) via an emission ratiometric fluorescence microscopy assay was a kind gift from Leslie M. Loew […]
(§4) (University of Connecticut, CT) (1). For these measurements, cells were placed onto an 8-well […]
(§5) chambered coverglass and labeled with 100 nM LysoTracker Deep Red (Thermo Fisher Scientific, […]
(§6) Waltham, MA) for visualization of lysosomes and 10 µM PY3174 for 2 hours at 37°C to stimulate the […]
(§7) endocytosis of the environment-sensitive fluorophore. After staining, images were taken at the […]
(§8) midplane of cells using an LSM880 confocal laser-scanning microscope (Carl Zeiss AG, Jena, […]
(§9) Germany). PY3174 was excited at 488 nm and emitted intensities were measured in two wavelength […]
(§10) ranges between 500 and 540 nm (Iblue) and 650 and 735 nm (Ired), while LysoTracker Deep Red was […]
(§11) excited at 633 nm and emission was detected between 650 and 735 nm. During processing, pixels […]
(§12) corresponding to lysosomal membranes were identified based on the intensity of LysoTracker Deep […]
(§13) Red using a custom-written algorithm under MATLAB. The average value of generalized polarization […]
(§14) (GP) correlating with the degree of membrane hydration (1) was calculated from the data of lysosomal […]
(§15) membrane pixels after background subtraction using […]
(§16) (1 picture or pasted object on this page, not shown here)

THP-1 cells [2] = conditions: 50 μM fatty acid 48 h, LysoTracker Deep Red and 10 µM PY3174 2 h at 37°C, extent similar to cell membrane
Protocol: as §1, §2, §3, §4, §5, §6, §7, §8, §9, §10, §11, §12, §13, §14, §15, §16

JY cells [3] = assay: Membrane dipole potential, F66 emission ratio, flow cytometry; format: cell-based, human; conditions: 50 μM fatty acid 48 h, then 50 or 200 μM cholesterol 1 h, n = 5
Protocol: (§17) The human acute monocytic leukemia-derived cell line THP-1 and the human Epstein-Barr virus (EBV) transformed lymphoblastoid cell line JY were obtained from the American Type Culture Collection (Manassas, VA, United States) and cultivated according to their specifications. […] As controls, cells were treated with the corresponding amounts of native MβCD complexes not containing sterols. To study the effects of fatty acids, cells were incubated for 48 h in medium supplemented with saturated stearic acid (SA, Sigma Aldrich), ω-3 polyunsaturated α-linolenic acid (ALA, Sigma Aldrich) or ω-6 polyunsaturated γ-linolenic acid (GLA, Sigma Aldrich) at various concentrations ranging from 12.5 to 50 μM. […] After washing, the fluorescence intensities of cells were determined with a FACS Aria III flow cytometer (Becton Dickinson, Mountain View, CA, United States) at 37°C. […] Data analysis was carried out in FCS Express (De Novo Software, Los Angeles, CA, United States). The ratio of emitted intensities in the two wavelength ranges (N^∗/T^∗) was determined for each cell and the average value was calculated for each sample from the data of living cells gated on FSC-SSC dot plots. The value of N^∗/T^∗ ratio negatively correlates with the magnitude of DP ([Kovacs et al., 2017]).

THP-1 cells [4] = assay: as above; format: cell-based, human; conditions: n = 5; for effect of fatty acid pretreatment on cholesterol-induced DP elevation (Rem, F66): 50 μM fatty acid 48 h, then 50 or 200 μM cholesterol 1 h; for Rem, F66: fatty acid 12.5-50 μM for 48 h
Protocol: as §17

Compound	generalized polarization of PY3174 in the lysosomal membranes (JY cells [1])	generalized polarization of PY3174 in the lysosomal membranes (THP-1 cells [2])	effect of fatty acid pretreatment on cholesterol-induced DP elevation (Rem, F66) (JY cells [3])	effect of fatty acid pretreatment on cholesterol-induced DP elevation (Rem, F66) (THP-1 cells [4])	Rem, F66 (THP-1 cells [4])
CC/C=C\C/C=C\C/C=C\CCCCCCCC(=O)O [ALA, α-linolenic acid]	decreased	decreased	significantly decreased the DP-elevating effect of cholesterol	significantly decreased the DP-elevating effect of cholesterol	dose-dependently and significantly increased
CCCCC/C=C\C/C=C\C/C=C\CCCCC(=O)O [GLA, γ-linolenic acid]	decreased	decreased	a tendency to augment the cholesterol-induced DP changes	a tendency to augment the cholesterol-induced DP changes	opposite changes
